Literature values as cited in publication PMC10698917, “Antioxidant and antidiabetic flavonoids from the leaves of Dypsis pembana (H.E.Moore) Beentje & J.Dransf., Arecaceae: in vitro and molecular docking studies” (BMC Complementary Medicine and Therapies, 2023).

Test system: HepG-2 cell line
Parameters: method as in PMID 37391756
Settings: cited from earlier work

Row | SMILES | Cytotoxic activity
1 | O=c1cc(-c2ccc(O)cc2)oc2c([C@@H]3O[C@H](CO)[C@@H](O)[C@H](O)[C@H]3O)c(O)c([C@@H]3O[C@H](CO)[C@@H](O)[C@H](O)[C@H]3O)c(O)c12 [Compound 7, vicenin-II] | promising cytotoxic activities
2 | O=c1cc(-c2ccc(O)cc2)oc2cc(O)c([C@@H]3O[C@H](CO)[C@@H](O)[C@H](O)[C@H]3O)c(O)c12 [Compound 13, isovitexin] | promising cytotoxic activities
